# Test results taken from BindingDB's records for doi:10.1021/jm00159a013 (1986).
# Target: Prostacyclin synthase (Sus scrofa)
# Experiment: Inhibition of porcine aorta prostacyclin PGI-2 synthetase
row,IC50,SMILES
1,> 100 µM,Cc1c(Cn2ccnc2)sc2ccc(C(=O)O)cc12 [2-Imidazol-1-ylmethyl-3-methyl-benzo[b]thiophene-5-carboxylic acid]
2,> 100 µM,Cc1c(Cn2ccnc2)sc2cc(C(=O)O)ccc12 [2-Imidazol-1-ylmethyl-3-methyl-benzo[b]thiophene-6-carboxylic acid]
3,> 100 µM,Cc1c(Cn2ccnc2)oc2ccc(C(=O)O)cc12 [2-Imidazol-1-ylmethyl-3-methyl-benzofuran-5-carboxylic acid]
4,> 100 µM,O=C(O)c1ccc2sc(Cn3ccnc3)cc2c1 [2-Imidazol-1-ylmethyl-benzo[b]thiophene-5-carboxylic acid]
5,> 100 µM,O=C(O)c1ccc2c(Cl)c(Cn3ccnc3)sc2c1 [3-Chloro-2-imidazol-1-ylmethyl-benzo[b]thiophene-6-carboxylic acid]
6,> 100 µM,O=C(O)c1ccc2oc(Cn3ccnc3)c(Cl)c2c1 [3-Chloro-2-imidazol-1-ylmethyl-benzofuran-5-carboxylic acid]
